Results: patent US6827926B2, “Metallotetrapyrrolic photosensitizing agents for use in photodynamic therapy” (Miravant Pharmaceuticals, Inc., priority 2001, dated 2004)
pEC50: −log10 of the molar value. Like-named read-outs stand apart in the source and are kept apart here.

Key:
[1] = test system: normal skin of CD Hairless male rats; format: in vivo, rat; settings: rat, in vivo
Summary of the method: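 Liposomal egg yolk phospholipid photosensitizer given as single i.v. tail-vein bolus at 1, 1.5 and 2 μmol/kg; skin spots irradiated with 532 nm laser (150 mW/cm^2, 150J, 1 cm) at 1, 6, 24, 48, 96 hrs post injection. Value is time of last observed skin response spot.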

[2] = test system: V79 (Chinese Hamster Lung Fibroblasts) cells; assay: In vitro cytotoxicity assay (light EC50, Alamar blue); format: cell-based
Summary of the method: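 V79 cells in phenol-free 5% FBS/DMEM exposed 24 h to photosensitizer at final 0.01–5.0 μM, six replicates, then washed and light-treated, with a dark plate as control. Survival by Alamar blue after 24 h dark incubation, read at 570/600 nm.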

[3] = test system: normal uninjured rat carotid arteries (medial and adventitial cell populations); assay: In vivo rat carotid artery acellularity after PDT; parameters: species or system Sprague Dawley rats; settings: for Max % rat Artery Accelularity: Table 3; for Max % Rat Artery Accelularity: Table 4, 575 nm (Pt 532 nm)
Summary of the method: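 Metallated photosensitizers light-activated in normal uninjured rat left common carotid via balloon catheter introduced through femoral arteriotomy under isoflurane; excitation 575 nm (Ga, Zn, Al, Sn) or 532 nm (Pt). Arteries harvested 3 days post-treatment, H&E-stained; medial and adventitial cell density assessed by light microscopy.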

[4] = Table 3 porphyrins, 24 h drug incubation, 532 nm, 1.25 J/cm^2, read-out: In Vitro EC50 Light
[5] = drug dose 1 μMol, 50 J/cm^2, 3 days post treatment
[6] = Table 4 azaporphyrins, 575 nm (Pt azaporphyrins 532 nm), 1.25 J/cm^2, read-out: In Vitro EC(50)

| Molecule | Normal skin Response (1 μmol) [1] [h] | pEC50 [2, 4] | Max % rat Artery Accelularity [3, 5] [%] | pEC50 [2, 6] | Max % Rat Artery Accelularity ([3]; drug dose 1 μMol) [%] | further results |
| --- | --- | --- | --- | --- | --- | --- |
| CCC1=C(C)C2=Cc3c(CC)c(C)c4[n]3[Ga-2]35([Cl])[n]6c(c(C)c(C(=O)NC)c6=CC6=[N+]3C(=C4)C(C)=C6CCC(=O)O)=CC1=[N+]25 [M=Ga R1=CO2H R2=Et R3=Et R4=CONHMe R5=H] | 6 | – | – | – | – | pEC50 ([2]; Table 5 plant derived gallium porphyrins, light, read-out: In Vitro EC(50)): 6.30; Max % Rat Artery Acceluarity ([3]; Table 5, drug dose 1 μMol): 50% |
| CCC1=C(C)C2=[N+]3C1=Cc1c(C)c(CC)c4[n]1[Sn-2]31([Cl])([Cl])[n]3c(c(C)c(CCC(=O)NC)c3=CC3=[N+]1C(=C4)C(C)=C3CCC(=O)NC)=C2 [Example 58, Tin(IV)dichloride Mesoporphyrin N-methylamide] | 24 | 5.92 | 10 | – | – | – |
| CCOC(=O)CCC1=C(C)c2cc3[n-]c(cc4nc(cc5[n-]c(cc1n2)c(CCC(=O)OCC)c5C)C(CC)=C4C)c(CC)c3C.[Cl-].[Ga+3] [Example 2, Gallium Chloride Mesoporphyrin Diethyl Ester] | 24 | 6.31 | 80 | – | – | – |
| Gallium Chloride Mesoporphyrin III Dimethyl Ester [Example 115] | 6 | 6.52 | 10 | – | – | – |
| CCOC(=O)CCC1=C(C)C2=Cc3c(CC)c(CC)c4[n]3[Ga-2]35([Cl])[n]6c(c(C)c(CCC(=O)OCC)c6=CC1=[N+]23)=CC1=[N+]5C(=N4)C(CC)=C1CC [Example 89, Gallium Chloride 7,8,12,13-tetraethyl-12,17-dimethyl-10-azaporphyrin-2,18-di(propionic acid ethyl ester)] | 24 | – | – | 6.40 | 60 | – |
| CCC1=C(C)C2=[N+]3C1=Cc1c(C)c(CC)c4[n]1[Ga-2]31([Cl])[n]3c(c(C)c(CCC(=O)N(CC)CC)c3=CC3=[N+]1C(=C4)C(C)=C3CCC(=O)N(CC)CC)=C2 [Example 15, Gallium Chloride Mesoporphyrin N,N-diethylamide] | 96 | 6.35 | 60 | – | – | – |
| CCC1=C(C)c2cc3[n-]c(cc4nc(cc5[n-]c(cc1n2)c(C)c5CCC(=O)OC)C(CCC(=O)OC)=C4C)c(C)c3CC.[Cl-].[In+3] [Example 31, Indium Chloride Mesoporphyrin Dimethyl Ester] | 96 | 7.15 | 90 | – | – | – |
| CCC1=C(CC)C2=Nc3c(CC)c(CC)c4[n]3[In]([Cl])[n]3c(c(C)c(CCC(=O)NC)c3=CC3=NC(=C4)C(C)=C3CCC(=O)NC)=CC1=N2 [Example 91, Indium Chloride 7,8,12,13-tetraethyl-12,17-dimethyl-10-azaporphyrin-2,18-di(propionic acid methyl amide)] | 48 | – | – | 7.15 | 50 | – |
| C=CC1=C(C)C2=Nc3c(C=C)c(C)c4[n]3[Ga-2]35([Cl])[n]6c(c(C)c(CCC(=O)NC)c6=CC6=[N+]3C(=C4)C(C)=C6CCC(=O)NC)=CC1=[N+]25 [M=Ga R1,R3=Me R2,R4=V R=CONHMe] | 24 | – | – | 6.30 | 50 | – |
| 8,13-diethyl-3,7,12,17-tetramethylporphrine-2,18-di(3′-hydroxypropyl) [Example 7a] | – | 6.40 | – | – | – | Normal skin Response (1 μmol) in hrs [1]: none; Max % rat Artery Accelularity ([3]; drug dose 0.16 μMol): 7%; efficacy of free base porphyrins in the arterial rat model ([3]; at the time point, drug and light dose parameters used): poor efficacy; efficacy in the rat arterial model ([3]; drug doses up to 2 μmol/Kg): no efficacy |
